Assay results from article PMC9573696, “Experimental Examination of Solubility and Lipophilicity as Pharmaceutically Relevant Points of Novel Bioactive Hybrid Compounds” (Molecules, 2022).
Converted amounts (≈) assume the structure as drawn. Marks after values point to notes of the source that are not given here.

Tests used:
[1] = Partition in system 1-octanol/buffer pH 7.4, shake-flask method; assay type: physicochemical; conditions: for logP at 2 days / logD at 2 days: 1-octanol/buffer pH 7.4, pH 7.4, 1-octanol/buffer pH 7.4; for logP at 2 days: from concentrations in mole fraction; for logD at 2 days / logPo/b: from concentrations in mol∙L^−1; for sb × 10^6 (concentration in buffer) / so × 10^4 (concentration in 1-octanol) / xb × 10^7 (mole fraction in buffer) / xo × 10^5 (mole fraction in 1-octanol) / logPo/b: 1-octanol/buffer pH 7.4
Method: The partition coefficients of the new hybrid compounds in the model system 1-octanol/buffer pH 7.4 as a lipophilicity surrogate were determined experimentally. […] It is the lipophilic properties that allow the hybrids to move from the water phase to the less hydrophilic octanol phase, where the solute–solvent intermolecular interactions are more favourable. According to the results shown in Table 5, the order of changes in the partition coefficients logPo/b at T = 298.15 K, depending on the substituent nature, is expressed as the inequality: Cl- (1.65) < F- (2.40) < CH3- (2.50). Compounds I and II are the most lipophilic in the series of the studied substances, whereas the introduction of a chlorine atom considerably lowers the partition coefficient (~0.8 log units). This fact agrees with the common concept that lipophilic groups are usually hydrocarbon or fluorine-containing radicals. […] For drugs with such partition coefficients, there is a good balance between the solubility and permeability through passive diffusion and minimum metabolism due to the low binding capacity with enzymes.
The octanol/buffer pH 7.4 partition coefficient logPO/B is measured in a static mode using the shake-flask method. The procedure has been presented as standard in the Organization for Economic Cooperation and Development (OECD) guidelines for testing chemicals. The equipment described above was also used for the determination of the 1-octanol/water partition coefficients. […] The correctness of the obtained value of each compound was verified by checking the mass balance of the starting amount of the compound and the total amount of the compound partitioned between the two phases.
To aim evaluated transfer (partition) thermodynamic functions, the 1-octanol/buffer partition coefficients P^* o/b as the ratio of equilibrium concentrations in the organic (xo) and aqueous phases (xb) expressed in mole fractions were calculated: P* o/b = xo/xb(12)

[2] = Equilibrium (thermodynamic) solubility, shake-flask method; assay type: physicochemical; conditions: for Solubility S × 10^2 / Solubility x × 10^3: 1-Octanol; for Solubility S × 10^2 / Solubility x × 10^3 / Solubility S × 10^4 / Solubility x × 10^5 / Solubility S × 10^5 / Solubility x × 10^6: amorphous state; for Solubility S × 10^4 / Solubility x × 10^5: Buffer pH 2.0; for Solubility S × 10^5 / Solubility x × 10^6: Buffer pH 7.4
Description: The experimental solubility values of hybrids in the selected solvents within the temperature range of 293.15–313.15 K expressed in molarity are summarized in Table 2. The comparative analysis of the reference values of the solubility of compounds I–III at the standard temperature of 298.15 K is given as a histogram in Figure 3.
Shake-flask method as “gold standard” was used for determination thermodynamic solubility synthesized compounds in buffer solutions (pH 2.0 and 7.4) and 1-octanol in the temperature range of 293.15–313.15 K with a step of 5 degrees at atmospheric pressure. Excessive amounts of compound were added to glass vials c 12 mL of selected solvent. The heterogeneous system is closed with a lid and vigorously stirred at the selected temperature in an air thermostat with a stirring device until the solubility equilibrium has been reached. The time required for establishing a constant value of the solution concentration was determined from the solubility kinetic dependences and averaged 2 days. The equilibrated solutions were first survived to aim sedimentation of solid phase during 10 h, then centrifuged at 20,000 rpm for 30 min at specific temperatures, and then quickly filtered using a syringe equipped with a hydrophilic filter Millex-GV 0.22 µm (Ireland). Concentration of saturated solution was measured using spectrophotometer Cary-50 (Varian, USA) with an accuracy of 2–4%. The absorbances of compounds studied were measured at wavelengths 332 and 334 nm in buffer solutions and 1-octanol, respectively. If necessary, an aliquot was diluted with an appropriate solvent. The final pH of the saturated buffers was monitored. The solubility of compounds in each solvent was determined by repeating the procedure three times.
Mole fraction concentration was calculated from solubility value S expressed in mol∙L^−1 using Equation (10):(10) x=M2S/S(M2−M1)+1000ρ, where M1 and M2 are the molar masses of solute and solvent, respectively, and ρ (g∙cm^−3) is the density of the pure solvents. The mole fraction solubilities for buffer solutions were calculated taking into account the buffer compositions. The used values of densities are given in Table S6 in Supplementary Material.

## O=c1c2sc(=S)n(-c3ccc(Cl)cc3)c2ncn1CCCN1CCN(CC(O)(Cn2cncn2)c2ccc(F)cc2F)CC1 (stereo not shown) [III, 6-[3-[4-[2-(2,4-difluorophenyl)-2-hydroxy-3-(1H-1,2,4-triazol-1-yl)propyl]-1-piperazinyl]propyl]-2,3-dihydro-3-(4-chlorophenyl)-2-thioxo-thiazolo[4,5-d]pyrimidin-7(6H)-one]
[1]; 293.15 K
  logP at 2 days: 2.56
  logD at 2 days: 1.62
  sb × 10^6 (concentration in buffer): 9.29 mol∙L^−1 (printed as sb × 10^6
  so × 10^4 (concentration in 1-octanol): 3.89 mol∙L^−1 (printed as so × 10^4
  xb × 10^7 (mole fraction in buffer): 1.69 mole fraction (printed as xb ×
  xo × 10^5 (mole fraction in 1-octanol): 6.14 mole fraction (printed as xo ×
[1]; 298.15 K
  logP at 2 days: 2.59
  sb × 10^6 (concentration in buffer): 8.77 mol∙L^−1 (printed as sb × 10^6
  so × 10^4 (concentration in 1-octanol): 3.90 mol∙L^−1 (printed as so × 10^4
  xb × 10^7 (mole fraction in buffer): 1.60 mole fraction (printed as xb ×
  xo × 10^5 (mole fraction in 1-octanol): 6.17 mole fraction (printed as xo ×
  logPo/b: 1.65
[1]; 303.15 K
  logP at 2 days: 2.61
  sb × 10^6 (concentration in buffer): 8.29 mol∙L^−1 (printed as sb × 10^6
  so × 10^4 (concentration in 1-octanol): 3.91 mol∙L^−1 (printed as so × 10^4
  xb × 10^7 (mole fraction in buffer): 1.51 mole fraction (printed as xb ×
  xo × 10^5 (mole fraction in 1-octanol): 6.21 mole fraction (printed as xo ×
  logPo/b: 1.67
[1]; 308.15 K
  logP at 2 days: 2.64
  logD at 2 days: 1.7
  sb × 10^6 (concentration in buffer): 7.80 mol∙L^−1 (printed as sb × 10^6
  so × 10^4 (concentration in 1-octanol): 3.91 mol∙L^−1 (printed as so × 10^4
  xb × 10^7 (mole fraction in buffer): 1.42 mole fraction (printed as xb ×
  xo × 10^5 (mole fraction in 1-octanol): 6.24 mole fraction (printed as xo ×
[1]; 313.15 K
  logP at 2 days: 2.69
  logD at 2 days: 1.73
  sb × 10^6 (concentration in buffer): 7.36 mol∙L^−1 (printed as sb × 10^6
  so × 10^4 (concentration in 1-octanol): 3.92 mol∙L^−1 (printed as so × 10^4
  xb × 10^7 (mole fraction in buffer): 1.35 mole fraction (printed as xb ×
  xo × 10^5 (mole fraction in 1-octanol): 6.28 mole fraction (printed as xo ×
[2]; 293.15 K
  Solubility S × 10^2: 1.1196 mol∙L^−1 (printed as S × 10^2)
  Solubility x × 10^3: 1.7767 mol. frac. (printed as x × 10^
  Solubility S × 10^4: 6.3622 mol∙L^−1 (printed as S × 10^4)
  Solubility x × 10^5: 1.1474 mol. frac. (printed as x × 10^
  Solubility S × 10^5: 5.8572 mol∙L^−1 (printed as S × 10^5)
  Solubility x × 10^6: 1.0651 mol. frac. (printed as x × 10^
[2]; 298.15 K
  Solubility S × 10^2: 1.2269 mol∙L^−1 (printed as S × 10^2)
  Solubility x × 10^3: 1.9566 mol. frac. (printed as x × 10^
  Solubility S × 10^4: 6.7826 mol∙L^−1 (printed as S × 10^4)
  Solubility x × 10^5: 1.2247 mol. frac. (printed as x × 10^
  Solubility S × 10^5: 6.7347 mol∙L^−1 (printed as S × 10^5)
  Solubility x × 10^6: 1.2262 mol. frac. (printed as x × 10^
[2]; 303.15 K
  Solubility S × 10^2: 1.3464 mol∙L^−1 (printed as S × 10^2)
  Solubility x × 10^3: 2.1577 mol. frac. (printed as x × 10^
  Solubility S × 10^4: 7.1958 mol∙L^−1 (printed as S × 10^4)
  Solubility x × 10^5: 1.3013 mol. frac. (printed as x × 10^
  Solubility S × 10^5: 7.7877 mol∙L^−1 (printed as S × 10^5)
  Solubility x × 10^6: 1.4201 mol. frac. (printed as x × 10^
[2]; 308.15 K
  Solubility S × 10^2: 1.4730 mol∙L^−1 (printed as S × 10^2)
  Solubility x × 10^3: 2.3729 mol. frac. (printed as x × 10^
  Solubility S × 10^4: 7.5805 mol∙L^−1 (printed as S × 10^4)
  Solubility x × 10^5: 1.3731 mol. frac. (printed as x × 10^
  Solubility S × 10^5: 8.9503 mol∙L^−1 (printed as S × 10^5)
  Solubility x × 10^6: 1.6349 mol. frac. (printed as x × 10^
[2]; 313.15 K
  Solubility S × 10^2: 1.6045 mol∙L^−1 (printed as S × 10^2)
  Solubility x × 10^3: 2.5979 mol. frac. (printed as x × 10^
  Solubility S × 10^4: 7.9724 mol∙L^−1 (printed as S × 10^4)
  Solubility x × 10^5: 1.4468 mol. frac. (printed as x × 10^
  Solubility S × 10^5: 10.2665 mol∙L^−1 (printed as S × 10^5)
  Solubility x × 10^6: 1.8788 mol. frac. (printed as x × 10^
[2]; 25 °C, organic solvent or mixture, thermodynamic from solid, 1-octanol, text values match 298.15 K, read-out: Solubility S in the alcohol (1-octanol)
  solubility at 2 days: 12.3 mM (≈ 8110 µg/mL)
